Experimental data published in the NIST ThermoML archive (doi:10.1016/j.fluid.2008.03.004).
± gives the expanded uncertainty stated by the source.

Assay: xn = mol fraction of the nth substance listed
Settings: 101 kPa, Liquid; for speed of sound: Sing-around technique in a fixed-path interferometer

COC(C)(C)C [2-methoxy-2-methylpropane] + Cc1ccc(C)cc1
Settings | mass density, 288.15 K [kg/m3] | mass density, 290.65 K [kg/m3] | mass density, 293.15 K [kg/m3] | mass density, 295.65 K [kg/m3] | speed of sound, 288.15 K [m/s] | speed of sound, 290.65 K [m/s] | speed of sound, 293.15 K [m/s] | speed of sound, 295.65 K [m/s]
x1 = 0.051 | 859.904 ± 0.4 | 857.719 ± 0.4 | 855.534 ± 0.4 | 853.348 ± 0.41 | 1337.8 ± 2.2 | 1327.2 ± 2.2 | 1316.8 ± 2.2 | 1306.5 ± 2.2
x1 = 0.111 | 853.391 ± 0.41 | 851.187 ± 0.41 | 848.983 ± 0.41 | 846.775 ± 0.42 | 1325 ± 2.2 | 1314.2 ± 2.2 | 1303.7 ± 2.2 | 1293.1 ± 2.2
x1 = 0.199 | 843.55 ± 0.42 | 841.317 ± 0.42 | 839.08 ± 0.43 | 836.841 ± 0.43 | 1302.9 ± 2.2 | 1292.2 ± 2.2 | 1281.6 ± 2.2 | 1271 ± 2.2
x1 = 0.297 | 832.629 ± 0.44 | 830.36 ± 0.44 | 828.088 ± 0.44 | 825.813 ± 0.45 | 1278.6 ± 2.2 | 1267.7 ± 2.2 | 1257 ± 2.2 | 1246.2 ± 2.2
x1 = 0.394 | 821.398 ± 0.45 | 819.092 ± 0.46 | 816.783 ± 0.46 | 814.47 ± 0.46 | 1253 ± 2.2 | 1242 ± 2.2 | 1231.1 ± 2.2 | 1220.2 ± 2.2
x1 = 0.5 | 808.782 ± 0.47 | 806.435 ± 0.48 | 804.082 ± 0.48 | 801.723 ± 0.48 | 1223.9 ± 2.2 | 1212.8 ± 2.2 | 1201.9 ± 2.2 | 1191 ± 2.2
x1 = 0.591 | 797.744 ± 0.49 | 795.358 ± 0.49 | 792.963 ± 0.5 | – | 1199.5 ± 2.2 | 1188.4 ± 2.2 | 1177.3 ± 2.2 | 1166.2 ± 2.2
x1 = 0.7 | 784.294 ± 0.51 | 781.856 ± 0.51 | 779.412 ± 0.52 | – | 1169.8 ± 2.2 | 1158.4 ± 2.2 | 1147.2 ± 2.2 | 1135.9 ± 2.2
x1 = 0.799 | 771.481 ± 0.53 | 768.993 ± 0.53 | 766.5 ± 0.54 | – | 1140.7 ± 2.2 | 1129.2 ± 2.2 | 1117.9 ± 2.2 | 1106.6 ± 2.2
x1 = 0.898 | 758.534 ± 0.55 | 755.997 ± 0.55 | 753.452 ± 0.56 | – | 1112.1 ± 2.2 | 1100.5 ± 2.2 | 1089 ± 2.2 | 1077.5 ± 2.2
x1 = 0.949 | 751.828 ± 0.56 | 749.262 ± 0.56 | 746.689 ± 0.57 | – | 1096.4 ± 2.2 | 1084.7 ± 2.2 | 1073.2 ± 2.2 | 1061.7 ± 2.2
x1 = 1 | 744.861 ± 0.55 | 742.259 ± 0.56 | 739.654 ± 0.56 | – | 1083.4 ± 2.2 | 1071.6 ± 2.2 | 1060 ± 2.2 | 1048.5 ± 2.2
